Patent US6989263B1, “Method for identifying and using compounds that inactivate HIV-1 and other retroviruses by attacking highly conserved zinc fingers in the viral nucleocapsid protein” (The United States of America as represented by the …, priority 1994, dated 2006)
pIC50: −log10 of the molar value. Entries after “also recorded” stand apart in the source; their conditions may differ. Read-outs that look alike come from different tables or passages of the source.

Key:
p7NC = target: T1, p7NC (Human immunodeficiency virus type 1 group M subtype B, UniProt P05888); test: HPLC analysis of reaction products of purified p7NC with reagent; assay type: biochemical, HIV-1; set-up: key to Protein (HPLC): reaction products / Protein (HPLC): reaction rate: formation of non-native, intra-protein disulfide links (designated “Disulfides”); some of the reagents form adducts with the cysteine residues as well (designated “Adducts”); slow: “Slow” reactions are those in which greater than 10% of the p7NC protein remained in its native form after the 10 minute incubation with reagent; very slow: “Very slow” reactions are those in which greater than 50% of the p7NC protein remained in its native form after the 10 minute incubation with reagent; fast: “Fast” reactions result in complete transformation of the p7NC protein to non-native conformations during the 10 minute incubation period; conditions: for Protein (HPLC): reaction products: 63 μM p7NC, 6 reagent : 1 protein, 10 minutes
T1 construct: The NC protein of HIV-1 (MN) p7NC was expressed in E. coli; made in house; host or cells: E. coli (vector pMAL-c)
Source text: Highly purified retroviral NC proteins can be produced by expression from vectors generated through recombinant DNA technology. These proteins when reconstituted with zinc (see, Summers, et al., Protein Science 1:563–567 (1992) for methods), provide the source of the NC proteins containing the zinc fingers that are the targets for attack by the compounds of this invention. When the zinc fingers in NC proteins react with identified compounds, the reaction produces a covalent change in the NC protein, and the modified protein can be separated from the unreacted protein by, for example, reversed phase HPLC.
Samples of p7NC and apo-p7 were reacted with varying amounts of cupric chloride and resulting products separated by HPLC. The reactions were carried out using 44.3 μM protein (p7NC or apo-p7) in 0.1 M Tris-HCl, pH 7.4, for 6 minutes at room temperature with varying concentrations of CuCl2 to achieve the indicated ratios of reactants, in a final volume of 0.7 ml. Chromatography was carried out on the resulting products at pH 2 (0.05% trifluoroacetic acid) on μBondapak™ C-18 (3.9×300 mm) at 1.0 ml/minute using an acetonitrile gradient (0–17%, 20 ml; 17–20%, 60 ml; 20–60%, 10 ml). Elution positions of unreacted protein (p7NC or apo-p7) are indicated as apo-p7.
A two-fold excess of NOBA was reacted with p7NC, and the products were separated by HPLC (FIG. 10) as described above for Cu^+2 and p7NC. Elution positions for the reactants (NOBA and unreacted p7NC) and products, reacted p7NC, NOBA, HABA and AzoxyBA are indicated and an elution profile is included in FIG. 10. NOBA and AzoxyBA were supplied by Octamer, Inc. (Mill Valley, Calif.) and used as HPLC standards.
The disulfide reagent of choice (each available from the Aldrich Chemical Company (Milwaukee, Wis.)) was incubated for 10 minutes with purified p7NC protein (63 μM) at a ratio of 6 molecules of reagent to 1 molecule of NC protein (there are 6 cysteine thiols per NC protein). The formation of non-native protein conformations was monitored by HPLC as described above. […] Generally, the inactivation proceeds by formation of non-native, intra-protein disulfide links (designated “Disulfides”), but some of the reagents form adducts with the cysteine residues as well (designated “Adducts”). “Slow” reactions are those in which greater than 10% of the p7NC protein remained in its native form after the 10 minute incubation with reagent. “Very slow” reactions are those in which greater than 50% of the p7NC protein remained in its native form after the 10 minute incubation with reagent. “Fast” reactions result in complete transformation of the p7NC protein to non-native conformations during the 10 minute incubation period.

[1] = target: T2, HIV NC protein in intact virus (Human immunodeficiency virus type 1 group M subtype B, UniProt P05888); test: Cross-linking of NC protein in intact HIV (non-reducing gel-mobility shift, western blot); assay type: biochemical, HIV-1; conditions: for X-link T-½ (min), HIV NC protein (top number): intact HIV generally 12.5 μM, reagent generally 25 μM
T2 construct: endogenous in cells; host or cells: intact HIV virions
Source text: Purified concentrated retrovirus and antisera against the purified NC protein of the virus can be used to test the ability of a specific compound to penetrate the virus and react with the NC protein by forming disulfide complexes in the core of the virus. The compound is mixed with the whole retrovirus under reaction conditions appropriate for the compound. The virus is then removed from the reagent by centrifugation and disrupted in, e.g, standard SDS-PAGE sample buffer with (reduced) and without (non-reduced) 2-mercaptoethanol. The viral proteins are then separated by standard SDS-PAGE and the sample examined for the presence or absence of the monomeric NC protein in the non-reduced sample. Depending upon the virus used in the experiment and the conditions of electrophoresis, the NC protein can be visualized by protein staining methods, or by immuno-blot (e.g., western) methods. Compounds which react with the NC protein by attacking the zinc finger complexes and forming disulfide cross-linked products (i.e., which generate multimers in the mobility shift assay) inactivate the virus. Thus, compounds of interest (i.e., those which cause cross-linking) reduced the amount of monomeric NC protein detected.
In order to determine whether HIV-1MN was inactivated by NOBA, the virus was incubated with varying concentrations of NOBA (3.0, 0.3, 0.03 and 0 mM) as in Table 1. The reaction products were pelleted by centrifugation, and separated by SDS-PAGE under reducing (2% 2-mercaptoethanol, panel A), or non-reducing conditions (panel B). p7NC was visualized by immunoblot analysis using monospecific rabbit antisera to the purified NC proteins as per L. E. Henderson et al., J. Virol. 66:1856 (1992).
Disulfide reagents were further tested for their ability to disrupt NC structure in the virus, based on their ability to cause inter-NC cysteine disulfide bonds (i.e., cross-linking) in the intact virus. The formation of inter-NC cysteine disulfides creates NC multimers, which migrate through a non-reducing gel at a different rate than NC monomers, as described above. Intact HIV virus (generally 12.5 μM) was exposed to the specified reagent (generally 25 μM) for varying lengths of time and electrophoresed through a non-reducing SDS-polyacrylamide gel. HIV NC monomers and multimers were visualized by western blot analysis as described above in Example 3. The approximate time required to cross-link one-half of the NC proteins in the virus at the specified reaction conditions was then determined. […] The top number in the cells of the X-link column in Table 2 refers to the approximate time in minutes required for one-half of the HIV NC proteins to become cross-linked.

[2] = target: T3, p11 Nucleocapsid Protein (p11NC) (Equine infectious anemia virus, UniProt P69732); test: Cross-linking of p11NC in intact EIAV particles (gel-mobility shift); assay type: biochemical; conditions: intact EIAV (50 μM), 4× the HIV assay concentrations
T3 construct: a variety of disulfide reagents cross-link the p11NC protein in intact viral particles; endogenous in cells; host or cells: intact EIAV particles
Source text: Essentially the same strategy was employed to analyze the ability of the various disulfide reagents to cross-link the p11 Nucleocapsid Protein (p11NC) in intact Equine Infectious Anemia Virus (EIAV) particles. The advantages of working with EIAV include the fact that it is not a human pathogen, and that the p11NC protein can be visualized by simple coomassie-blue staining after performing the gel-mobility shift assay (rather than by western blotting as for HIV) described above. The reaction conditions were essentially the same for the EIAV assays as for the HIV assays described above, except that the concentration of virus and disulfide reagent was 4× the concentrations used in the HIV assay above. The second number in each cell in the X-link column in Table 2 represents the time required to cross-link one-half of the p11NC protein in the intact viral particles. […] The bottom number in each cell of the X-link column, unless otherwise indicated, represents the concentration of EIAV used in the assay. Blank cells throughout Table 2 indicate that the compound has yet to be tested for the specified property.

[3] = cited from earlier work
HIV-1 [4] = test: microbe, parasite or virus in culture; conditions: Human immunodeficiency virus 1, read-out: TCID (Virus): concentration of reagent required to inactivate half of a standardized number of HIV-1 virus particles
Procedure: (§1) Concomitantly, the drug treated virions are tested for activity. The virions are suspended in media (rather than solubilized) and added to target cells. The cultures are then examined to determine whether the virions are still active.

[5] = system: SSFV (spleen focus forming virus); test: Survival of mice infected with SSFV; assay type: in vivo; conditions: oral doses, versus infected untreated mice
Source text: Mice susceptible to the retrovirus SSFV (spleen focus forming virus) when injected with the virus die within 35–40 days as a result of virally-mediated transformation of cells of the spleen.

HIV-1 [6] = conditions: PCR and viral inactivation assays
Procedure: as §1

T3 sequence (P69732 360-435): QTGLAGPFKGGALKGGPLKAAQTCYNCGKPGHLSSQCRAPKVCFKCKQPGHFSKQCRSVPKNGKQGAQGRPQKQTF

SMILES	Protein (HPLC): reaction products (p7NC)	cross-linking of the HIV-1 NC protein in intact virus (gel-mobility shift), in words [1]	X-link T-½ (min), HIV NC protein (top number) [1]	X-link T-½ (min), EIAV p11NC (second number) [2]	Toxicity (LD-50, mouse) ([3]; oral)	pIC50 (HIV-1 [4])	reaction with purified p7NC (HPLC), in words (p7NC)	survival after SSFV infection [5]	inactivation of HIV-1 virus / infectivity, in words (HIV-1 [6])	inactivation of HIV-1 virus / infectivity, in words (HIV-1 [6]; listed as Tetraethylthiuram disulfide)	Toxicity (LD-50, mouse) ([3]; IP)
S=C(SSC(=S)N1CCCCC1)N1CCCCC1 [Dicyclopentamethylenethiuram Disulfide]	Disulfides	caused a cross-linking of the HIV-1 NC protein	<<15 min	~10 min	2870 mg/kg	5.40					
CN(C)c1ccc(SSc2ccc(N(C)C)cc2)cc1 [4-(dimethylamino)phenyl disulfide]	(negative)					4.76					
CCN(CC)C(=S)SSC(=S)N(CC)CC [Tetraethylthiuram Disulfide, reference compound]	Disulfides		~15 min	~15 min	1980 mg/kg	4.18	reacts with p7NC to form oxidized p7 (disulfides)	survived SSFV infection significantly longer	inactivates the virus	inactivate HIV-1 virus	75 mg/kg
O=C(SSC(=O)c1ccccc1)c1ccccc1 [Benzoyl Disulfide]	Disulfides; also recorded: Adducts					4.17					
